Patent US8759535B2, “Substituted fused imidazole derivatives, pharmaceutical compositions, and methods of use thereof” (High Point Pharmaceuticals, LLC, priority 2010, dated 2014)
Counter-ions that a name gives are not always drawn.

Each molecule was assayed on HMOX1 (assay: HMOX1 Protein Assay (immunostaining of HO-1 in NHLF cells, GE InCell 1000)). Details: Homo sapiens, fold change above DMSO treated cells, 3 μM compound (asterisk), 16 h.
Assay type: cell-based
Procedure, shortened: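 NHLF cells seeded overnight in FGM-2, then exposed to compound or DMSO vehicle for 16 h, fixed, and immunostained for HO-1 with Hoechst nuclear counterstain; imaged on InCell 1000. Values are fold change over DMSO-treated cells, generally at 5 μM (0.8% DMSO), with asterisked entries at 3 μM.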

SMILES	fold induction at 3 µM
Cn1c(Nc2nc3ccc(C(F)(F)F)cc3s2)nc2cc(C(=O)NCCC(=O)N3CCOCC3)ccc21 [Example 374, 1-Methyl-2-(6-trifluoromethyl-benzothiazol-2-ylamino)-1H-benzoimidazole-5-carboxylic acid (3-morpholin-4-yl-3-oxo-propyl)-amide]	34.2
Cn1c(Nc2nc3ccc(Cl)cc3s2)nc2cc(C(=O)NCCCCCO)ccc21 [Example 227, 2-(6-Chloro-benzothiazol-2-ylamino)-1-methyl-1H-benzoimidazole-5-carboxylic acid (5-hydroxy-pentyl)-amide]	14
Cn1c(Nc2nc3ccc(C(F)(F)F)cc3s2)nc2cc(C(=O)NCC(=O)N3CCC[C@@H](O)C3)ccc21 [Example 432, 1-Methyl-2-(6-trifluoromethyl-benzothiazol-2-ylamino)-1H-benzoimidazole-5-carboxylic acid [2-((R)-3-hydroxy-piperidin-1-yl)-2-oxo-ethyl]-amide]	27.3
Cn1c(Nc2nc3ccc(OC(F)(F)F)cc3s2)nc2cc(C(=O)NCC(=O)N3CCC(C#N)CC3)ccc21 [Example 450, 1-Methyl-2-(6-trifluoromethoxy-benzothiazol-2-ylamino)-1H-benzoimidazole-5-carboxylic acid [2-(4-cyano-piperidin-1-yl)-2-oxo-ethyl]-amide]	51

Same assay, conditions: Homo sapiens, fold change above DMSO treated cells, 5 μM compound, 16 h

SMILES	fold induction at 5 µM
CN(C)CC(=O)NCCNC(=O)c1ccc2c(c1)nc(Nc1nc3ccc(OC(F)(F)F)cc3s1)n2C [Example 323, 1-Methyl-2-(6-trifluoromethoxy-benzothiazol-2-ylamino)-1H-benzoimidazole-5-carboxylic acid [2-(2-dimethylamino-acetylamino)-ethyl]-amide]	113
Cn1c(Nc2nc3ccc(Cl)cc3s2)nc2cc(C(=O)NCCOCCCO)ccc21 [Example 248, 2-(6-Chloro-benzothiazol-2-ylamino)-1-methyl-1H-benzoimidazole-5-carboxylic acid [2-(3-hydroxy-propoxy)-ethyl]-amide]	58.7
Cn1c(Nc2nc3ccc(OC(F)(F)F)cc3s2)nc2cc(C(=O)NCCOCC(N)=O)ccc21 [Example 267, 1-Methyl-2-(6-trifluoromethoxy-benzothiazol-2-ylamino)-1H-benzoimidazole-5-carboxylic acid (2-carbamoylmethoxy-ethyl)-amide]	58.8
Cn1c(Nc2nc3ccc(OC(F)(F)F)cc3s2)nc2cc(C(=O)NCC(=O)N3CCOCC3)cnc21 [Example 420, 3-Methyl-2-(6-trifluoromethoxy-benzothiazol-2-ylamino)-3H-imidazo[4,5-b]pyridine-6-carboxylic acid (2-morpholin-4-yl-2-oxo-ethyl)-amide]	33
CN(C)C(=O)[C@H](CO)NC(=O)c1ccc2c(c1)nc(Nc1nc3ccc(OC(F)(F)F)cc3s1)n2C [Example 368, 1-Methyl-2-(6-trifluoromethoxy-benzothiazol-2-ylamino)-1H-benzoimidazole-5-carboxylic acid ((S)-1-dimethylcarbamoyl-2-hydroxy-ethyl)-amide]	48
Cn1c(Nc2nc3ccc(OC(F)(F)F)cc3s2)nc2cc(C(=O)NCCOCCCO)ccc21 [Example 246, 1-Methyl-2-(6-trifluoromethoxy-benzothiazol-2-ylamino)-1H-benzoimidazole-5-carboxylic acid [2-(3-hydroxy-propoxy)-ethyl]-amide]	76.5
COc1cc2c(cc1C(=O)NCC(=O)N(C)C)nc(Nc1nc3ccc(OC(F)(F)F)cc3s1)n2C [Example 63, 6-Methoxy-1-methyl-2-(6-trifluoromethoxy-benzothiazol-2-ylamino)-1H-benzoimidazole-5-carboxylic acid dimethylcarbamoylmethyl-amide]	9.8
Cn1c(Nc2nc3ccc(Cl)cc3s2)nc2cc(C(=O)NCCOCCO)ccc21 [Example 235, 2-(6-Chloro-benzothiazol-2-ylamino)-1-methyl-1H-benzoimidazole-5-carboxylic acid [2-(2-hydroxy-ethoxy)-ethyl]-amide]	37.7
Cn1c(Nc2nc3ccc(OC(F)(F)F)cc3s2)nc2cc(C(=O)NCc3ccco3)ccc21 [Example 48, 1-Methyl-2-(6-trifluoromethoxy-benzothiazol-2-ylamino)-1H-benzoimidazole-5-carboxylic acid (furan-2-ylmethyl)-amide]	15.8
Cn1c(Nc2nc3ccc(Cl)cc3s2)nc2cc(C(=O)N[C@H]3CCCNC3)ccc21 [Example 310, 2-(6-Chloro-benzothiazol-2-ylamino)-1-methyl-1H-benzoimidazole-5-carboxylic acid (S)-piperidin-3-ylamide hydrochloride]	24.6
Cn1c(Nc2nc3ccc(OC(F)(F)F)cc3s2)nc2cc(C(=O)NCC(=O)N3CCCC(O)C3)ccc21 (stereo not drawn) [Example 431, 1-Methyl-2-(6-trifluoromethoxy-benzothiazol-2-ylamino)-1H-benzoimidazole-5-carboxylic acid [2-(3-hydroxy-piperidin-1-yl)-2-oxo-ethyl]-amide]	49.4
Cn1c(Nc2nc3ccc(Cl)cc3s2)nc2cc(C(=O)NCCC#N)ccc21 [Example 213, 2-(6-Chloro-benzothiazol-2-ylamino)-1-methyl-1H-benzoimidazole-5-carboxylic acid (2-cyano-ethyl)-amide]	48.6
CN(CCO)C(=O)CNC(=O)c1ccc2c(c1)nc(Nc1nc3ccc(Cl)cc3s1)n2C [Example 391, 2-(6-Chloro-benzothiazol-2-ylamino)-1-methyl-1H-benzoimidazole-5-carboxylic acid {[(2-hydroxy-ethyl)-methyl-carbamoyl]-methyl}-amide]	38.6
COCCn1c(Nc2nc3ccc(Cl)cc3s2)nc2cc(C(=O)NCCN3CCNC(=O)C3)ccc21 [Example 332, 2-(6-Chloro-benzothiazol-2-ylamino)-1-(2-methoxy-ethyl)-1H-benzoimidazole-5-carboxylic acid [2-(3-oxo-piperazin-1-yl)-ethyl]-amide]	55.9
Cn1c(Nc2nc3ccc(OC(F)(F)F)cc3s2)nc2cc(C(=O)NCC(=O)N3CCC(C(F)(F)F)CC3)ccc21 [Example 449, 1-Methyl-2-(6-trifluoromethoxy-benzothiazol-2-ylamino)-1H-benzoimidazole-5-carboxylic acid [2-oxo-2-(4-trifluoromethyl-piperidin-1-yl)-ethyl]-amide]	23
COCCn1c(Nc2nc3ccc(Cl)cc3s2)nc2cc(C(=O)NCC(=O)N(C)C)ccc21 [Example 366, 2-(6-Chloro-benzothiazol-2-ylamino)-1-(2-methoxy-ethyl)-1H-benzoimidazole-5-carboxylic acid dimethylcarbamoylmethyl-amide]	18.8
Cn1c(Nc2nc3ccc(OC(F)(F)F)cc3s2)nc2cc(C(=O)NC3CCCNC3)ccc21 (stereo not drawn) [Example 95, 1-Methyl-2-(6-trifluoromethoxy-benzothiazol-2-ylamino)-1H-benzoimidazole-5-carboxylic acid piperidin-3-ylamide hydrochloride]	11.2
CCNC(=O)c1ccc2c(c1)nc(Nc1nc3ccc(OC(F)(F)F)cc3s1)n2C [Example 6, 1-Methyl-2-(6-trifluoromethoxy-benzothiazol-2-ylamino)-1H-benzoimidazole-5-carboxylic acid ethylamide]	9.45
Cn1c(Nc2nc3ccc(OC(F)(F)F)cc3s2)nc2ccc(C#N)cc21 [Example 195, 1-Methyl-2-(6-trifluoromethoxy-benzothiazol-2-ylamino)-1H-benzoimidazole-6-carbonitrile]	4.4
CCN(CC)c1cc2c(cc1C(=O)NCCN1CCOCC1)nc(Nc1nc3ccc(OC(F)(F)F)cc3s1)n2C [Example 362, 6-Diethylamino-1-methyl-2-(6-trifluoromethoxy-benzothiazol-2-ylamino)-1H-benzoimidazole-5-carboxylic acid (2-morpholin-4-yl-ethyl)-amide]	13
Cn1c(Nc2nc3ccc(Cl)cc3s2)nc2cc(C(=O)N[C@H]3CCN(CCO)C3)ccc21 [Example 293, 2-(6-Chloro-benzothiazol-2-ylamino)-1-methyl-1H-benzoimidazole-5-carboxylic acid [(S)-1-(2-hydroxy-ethyl)-pyrrolidin-3-yl]amide]	29.4
COCCNC(=O)c1ccc2c(c1)nc(Nc1nc3ccc(OC(F)(F)F)cc3s1)n2CCF [Example 171, 1-(2-Fluoro-ethyl)-2-(6-trifluoromethoxy-benzothiazol-2-ylamino)-1H-benzoimidazole-5-carboxylic acid (2-methoxy-ethyl)-amide]	22.8
COCCNC(=O)c1ccc2c(c1)nc(Nc1nc3ccc(S(C)(=O)=O)cc3s1)n2C [Example 127, 2-(6-Methanesulfonyl-benzothiazol-2-ylamino)-1-methyl-1H-benzimidazole-5-carboxylic acid (2-methoxy-ethyl)-amide]	12.4
Cn1c(Nc2nc3ccc(Cl)cc3s2)nc2cc(C(=O)NCC(=O)N3CCC(CO)CC3)ccc21 [Example 442, 2-(6-Chloro-benzothiazol-2-ylamino)-1-methyl-1H-benzoimidazole-5-carboxylic acid [2-(4-hydroxymethyl-piperidin-1-yl)-2-oxo-ethyl]-amide]	34.9
CC(=O)NCCNC(=O)c1ccc2c(c1)nc(Nc1nc3ccc(OC(F)(F)F)cc3s1)n2C [Example 100, 1-Methyl-2-(6-trifluoromethoxy-benzothiazol-2-ylamino)-1H-benzoimidazole-5-carboxylic acid (2-acetylamino-ethyl)-amide]	25.9
Cn1c(Nc2nc3ccc(S(C)(=O)=O)cc3s2)nc2cc(C(=O)O)ccc21 [Example 119, 2-(6-Methanesulfonyl-benzothiazol-2-ylamino)-1-methyl-1H-benzimidazole-5-carboxylic acid]	22.1
